In EP1003557B1, “NEW SALTS WITH BENEFICIAL ORGANOLEPTIC PROPERTIES” (CHINOIN Gyogyszer és Vegyészeti Termékek Gyára RT., priority 1997, dated 1999):
Structures can show the parent of a compound that is named as a salt.

Each compound was assayed on Human U937 (cell line) PDE-IV enzime (assay: Cyclic nucleotide phosphodiesterase (PDE-IV) enzyme inhibition, two-step [3H]cAMP procedure). Conditions: [3H]cAMP substrate, 30 °C for 30 min, Tris buffer pH=7.6.
Format: biochemical
Procedure: Cyclic nucleotide phosphodiesterase activity is measured by a two-step procedure. […] The reaction is initiated by addition of the substrate. […] After cooling the tubes, 50µl of Crotalux atrox (0.5 mg/ml dest. water) is added and the samples are incubated and shaked for 30 min at 37°C. […] The mixture of 500 µl supernatant and 5 ml of liquid scintillation cocktail is measured to determine the amount of formed ^3H adenosine.
CCOc1ccc(/C=C2\NCCc3cc(OCC)c(OCC)cc32)cc1OCC [drotaverin hydrochloride, reference compound] was tested, and the IC50 was 4.7 µM. Compound CCOc1ccc(C=C2NCCc3cc(OCC)c(OCC)cc32)cc1OCC [Example 2, drotaverin cyclamate] has an IC50 of 1 µM. With “drotaverin-saccharimide ethanolate [Example 1]” the IC50 was 3.8 µM.
